In PubChem BioAssay (NCI):
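Cultured in 96-well plates, cells were exposed to test compound for 48 hours across five concentrations. At the GI50, growth is halved. TGI is the concentration that stops growth completely.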

Key:
Test in all cases: growth of human tumour cells (NCI), 48 h
786-0 renal = system: 786-0 renal
A498 renal = system: A498 renal
A549 NSCLC = system: A549 NSCLC
ACHN renal = system: ACHN renal
BT-549 breast = system: BT-549 breast
CAKI-1 renal = system: CAKI-1 renal
CCRF-CEM leukemia = system: CCRF-CEM leukemia
COLO 205 colon = system: COLO 205 colon
DU-145 prostate = system: DU-145 prostate
HCC-2998 colon = system: HCC-2998 colon
HCT-116 colon = system: HCT-116 colon
HCT-15 colon = system: HCT-15 colon
HL-60(TB) leukemia = system: HL-60(TB) leukemia
HOP-62 NSCLC = system: HOP-62 NSCLC
HOP-92 NSCLC = system: HOP-92 NSCLC
HS 578T breast = system: HS 578T breast
HT29 colon = system: HT29 colon
IGROV1 ovarian = system: IGROV1 ovarian
K-562 leukemia = system: K-562 leukemia
KM12 colon = system: KM12 colon
LOX IMVI melanoma = system: LOX IMVI melanoma
M14 melanoma = system: M14 melanoma
MALME-3M melanoma = system: MALME-3M melanoma
MCF7 breast = system: MCF7 breast
MDA-MB-231 breast = system: MDA-MB-231 breast
MDA-MB-435 = system: MDA-MB-435
MOLT-4 leukemia = system: MOLT-4 leukemia
NCI-H226 lung = system: NCI-H226 lung
NCI-H23 lung = system: NCI-H23 lung
NCI-H460 lung = system: NCI-H460 lung
NCI-H522 lung = system: NCI-H522 lung
NCI/ADR-RES ovarian = system: NCI/ADR-RES ovarian
OVCAR-3 ovarian = system: OVCAR-3 ovarian
OVCAR-4 ovarian = system: OVCAR-4 ovarian
OVCAR-5 ovarian = system: OVCAR-5 ovarian
OVCAR-8 ovarian = system: OVCAR-8 ovarian
PC-3 prostate = system: PC-3 prostate
RPMI-8226 leukemia = system: RPMI-8226 leukemia
RXF 393 renal = system: RXF 393 renal
SF-268 CNS = system: SF-268 CNS
SF-295 CNS = system: SF-295 CNS
SF-539 CNS = system: SF-539 CNS
SK-MEL-2 melanoma = system: SK-MEL-2 melanoma
SK-MEL-28 melanoma = system: SK-MEL-28 melanoma
SK-MEL-5 melanoma = system: SK-MEL-5 melanoma
SK-OV-3 ovarian = system: SK-OV-3 ovarian
SN12C renal = system: SN12C renal
SNB-19 CNS = system: SNB-19 CNS
SNB-75 CNS = system: SNB-75 CNS
SR leukemia = system: SR leukemia
SW-620 colon = system: SW-620 colon
T-47D breast = system: T-47D breast
TK-10 renal = system: TK-10 renal
U251 CNS = system: U251 CNS
UACC-257 melanoma = system: UACC-257 melanoma
UACC-62 melanoma = system: UACC-62 melanoma
UO-31 renal = system: UO-31 renal

Compound: CCCOC(=O)c1ccc2c(c1)[N+](=O)C(C(=O)c1ccccc1)=C(C(F)(F)F)[N+]2=O
- GI50 (786-0 renal): 1830 nM
- TGI (786-0 renal): 3.32 µM
- GI50 (A498 renal): 1300 nM
- TGI (A498 renal): 2830 nM
- GI50 (A549 NSCLC): 1670 nM
- TGI (A549 NSCLC): 3.33 µM
- GI50 (ACHN renal): 1780 nM
- TGI (ACHN renal): 3.26 µM
- GI50 (BT-549 breast): 1790 nM
- TGI (BT-549 breast): 3.27 µM
- GI50 (CAKI-1 renal): 1780 nM
- TGI (CAKI-1 renal): 3.37 µM
- GI50 (CCRF-CEM leukemia): 1850 nM
- TGI (CCRF-CEM leukemia): 3.98 µM
- GI50 (COLO 205 colon): 2090 nM
- TGI (COLO 205 colon): 3.85 µM
- GI50 (DU-145 prostate): 1840 nM
- TGI (DU-145 prostate): 3.31 µM
- GI50 (HCC-2998 colon): 1810 nM
- TGI (HCC-2998 colon): 3.29 µM
- GI50 (HCT-116 colon): 1700 nM
- TGI (HCT-116 colon): 3.36 µM
- GI50 (HCT-15 colon): 1630 nM
- TGI (HCT-15 colon): 3.3 µM
- GI50 (HL-60(TB) leukemia): 1960 nM
- TGI (HL-60(TB) leukemia): 3.88 µM
- GI50 (HOP-62 NSCLC): 1800 nM
- TGI (HOP-62 NSCLC): 3.37 µM
- GI50 (HOP-92 NSCLC): 1130 nM
- TGI (HOP-92 NSCLC): 2430 nM
- GI50 (HS 578T breast): 2010 nM
- TGI (HS 578T breast): 4.53 µM
- GI50 (HT29 colon): 2110 nM
- TGI (HT29 colon): 4.04 µM
- GI50 (IGROV1 ovarian): 1830 nM
- TGI (IGROV1 ovarian): 3.61 µM
- GI50 (K-562 leukemia): 2100 nM
- TGI (K-562 leukemia): 4.12 µM
- GI50 (KM12 colon): 1810 nM
- TGI (KM12 colon): 3.44 µM
- GI50 (LOX IMVI melanoma): 1720 nM
- TGI (LOX IMVI melanoma): 3.35 µM
- GI50 (M14 melanoma): 1820 nM
- TGI (M14 melanoma): 3.37 µM
- GI50 (MALME-3M melanoma): 1950 nM
- TGI (MALME-3M melanoma): 3.64 µM
- GI50 (MCF7 breast): 1640 nM
- TGI (MCF7 breast): 3.33 µM
- GI50 (MDA-MB-231 breast): 1910 nM
- TGI (MDA-MB-231 breast): 3.45 µM
- GI50 (MDA-MB-435): 1710 nM
- TGI (MDA-MB-435): 3.26 µM
- GI50 (MOLT-4 leukemia): 2050 nM
- TGI (MOLT-4 leukemia): 4.09 µM
- GI50 (NCI-H226 lung): 2060 nM
- TGI (NCI-H226 lung): 4.69 µM
- GI50 (NCI-H23 lung): 1780 nM
- TGI (NCI-H23 lung): 3.38 µM
- GI50 (NCI-H460 lung): 2040 nM
- TGI (NCI-H460 lung): 4.28 µM
- GI50 (NCI-H522 lung): 1800 nM
- TGI (NCI-H522 lung): 3.5 µM
- GI50 (NCI/ADR-RES ovarian): 1890 nM
- TGI (NCI/ADR-RES ovarian): 3.69 µM
- GI50 (OVCAR-3 ovarian): 1740 nM
- TGI (OVCAR-3 ovarian): 3.17 µM
- GI50 (OVCAR-4 ovarian): 1740 nM
- TGI (OVCAR-4 ovarian): 3.36 µM
- GI50 (OVCAR-5 ovarian): 1770 nM
- TGI (OVCAR-5 ovarian): 3.31 µM
- GI50 (OVCAR-8 ovarian): 1840 nM
- TGI (OVCAR-8 ovarian): 3.55 µM
- GI50 (PC-3 prostate): 1550 nM
- TGI (PC-3 prostate): 2940 nM
- GI50 (RPMI-8226 leukemia): 1940 nM
- TGI (RPMI-8226 leukemia): 4.11 µM
- GI50 (RXF 393 renal): 1700 nM
- TGI (RXF 393 renal): 3.25 µM
- GI50 (SF-268 CNS): 1780 nM
- TGI (SF-268 CNS): 3.48 µM
- GI50 (SF-295 CNS): 1680 nM
- TGI (SF-295 CNS): 3.21 µM
- GI50 (SF-539 CNS): 1790 nM
- TGI (SF-539 CNS): 3.21 µM
- GI50 (SK-MEL-2 melanoma): 1840 nM
- TGI (SK-MEL-2 melanoma): 3.52 µM
- GI50 (SK-MEL-28 melanoma): 1850 nM
- TGI (SK-MEL-28 melanoma): 3.51 µM
- GI50 (SK-MEL-5 melanoma): 1650 nM
- TGI (SK-MEL-5 melanoma): 3.11 µM
- GI50 (SK-OV-3 ovarian): 1890 nM
- TGI (SK-OV-3 ovarian): 3.33 µM
- GI50 (SN12C renal): 1790 nM
- TGI (SN12C renal): 3.36 µM
- GI50 (SNB-19 CNS): 1750 nM
- TGI (SNB-19 CNS): 3.22 µM
- GI50 (SNB-75 CNS): 1490 nM
- TGI (SNB-75 CNS): 3000 nM
- GI50 (SR leukemia): 1880 nM
- TGI (SR leukemia): 4.85 µM
- GI50 (SW-620 colon): 1840 nM
- TGI (SW-620 colon): 3.68 µM
- GI50 (T-47D breast): 1800 nM
- TGI (T-47D breast): 3.69 µM
- GI50 (TK-10 renal): 1590 nM
- TGI (TK-10 renal): 2990 nM
- GI50 (U251 CNS): 1760 nM
- TGI (U251 CNS): 3.2 µM
- GI50 (UACC-257 melanoma): 1750 nM
- TGI (UACC-257 melanoma): 3.22 µM
- GI50 (UACC-62 melanoma): 1760 nM
- TGI (UACC-62 melanoma): 3.26 µM
- GI50 (UO-31 renal): 1670 nM
- TGI (UO-31 renal): 3.06 µM
